The numbers were not newly measured in patent publication US6569857B1, “Dietary supplement” (Drugtech Corporation, priority 1999, dated 2003), which cites them from elsewhere.

Series [1] relates to malondialdehyde concentrations. The settings on record: oral vitamin E, male infertility patients; high levels are indicia of decreased sperm motility.
Series [2] concerns spermatozoal zona binding. The settings on record: oral dosing over a three month period, male infertility.

As for vitamin E, the malondialdehyde concentrations entry in series [1] is “significantly decreased”. In series [2], the “increase in spermatozoal zona binding” value is 50%.
